Measurements as given in patent US8952024B2, “Herbicidal pyrimidone derivatives” (E I du Pont de Nemours and Company, priority 2009, dated 2015).

Experiments:
Format in all cases: in vivo
[1] = tested on: barnyardgrass (Echinochloa crus-galli); test: Test A pre-/postemergence plant response
Summary of the method: (§1)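 Visual injury rating on a 0–100 scale (0 = no effect, 100 = complete control) was made versus untreated controls after about ten days in the greenhouse. Compounds, formulated in a non-phytotoxic solvent mix containing surfactant, were sprayed preemergence onto loam/sand soil and postemergence onto one- to two-leaf plants.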

corn (Zea mays) = test: Test A pre-/postemergence plant response
Summary of the method: as §1

[2] = tested on: giant foxtail (Setaria faberii); test: Test A pre-/postemergence plant response
Summary of the method: as §1

[3] = tested on: large crabgrass (Digitaria sanguinalis); test: Test A pre-/postemergence plant response
Summary of the method: as §1

[4] = tested on: morningglory (Ipomoea spp.); test: Test A pre-/postemergence plant response
Summary of the method: as §1

[5] = tested on: pigweed (Amaranthus retroflexus); test: Test A pre-/postemergence plant response
Summary of the method: as §1

[6] = tested on: velvetleaf (Abutilon theophrasti); test: Test A pre-/postemergence plant response; conditions: for Velvetleaf plant response rating: visual injury, 0 to 100 scale (0 no effect, 100 complete control)
Summary of the method: as §1

[7] = tested on: wheat (Triticum aestivum); test: Test A pre-/postemergence plant response; conditions: for Wheat plant response rating: visual injury, 0 to 100 scale (0 no effect, 100 complete control)
Summary of the method: as §1

[8] = tested on: winter barley (Hordeum vulgare); test: Test B postemergence plant response; conditions: for Barley plant response rating (0 to 100 scale): postemergence, 0 is no effect, 100 is complete control; for Plant response rating, Barley: Postemergence
Summary of the method: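 Plants at the 1- to 4-leaf stage (2 to 18 cm tall), grown in pots of peat moss/vermiculite medium with wetting agent and starter nutrients, received postemergence applications of test chemicals. After 13 to 15 days in a greenhouse, injury was rated visually against untreated controls on a 0 (no effect) to 100 (complete control) scale.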

[9] = tested on: barnyardgrass (Echinochloa crus-galli); test: Test B flooded paddy test; conditions: for Plant response rating, Flood, Barnyardgrass: 250 g ai/ha, flooded paddy test, visual rating on 0 to 100 scale (0 no effect, 100 complete control) after 13 to 15 days; for Plant response rating, Barnyardgrass: Flood (flooded paddy test), 13 to 15 days; for Barnyardgrass plant response rating: Flood, 31 g ai/ha, scale 0 to 100 (0 no effect, 100 complete control)
Summary of the method: (§2)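 Seedlings reaching 2 leaves are flooded 3 cm deep; test material is delivered to that water, which stays at the same depth. Plants remain in a greenhouse 13–15 days and are then scored by eye versus controls from 0 to 100.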

[10] = tested on: ducksalad (Heteranthera limosa); test: Test B flooded paddy test; conditions: for Plant response rating, Flood, Ducksalad: 250 g ai/ha, flooded paddy test, visual rating on 0 to 100 scale (0 no effect, 100 complete control) after 13 to 15 days; for Plant response rating, Ducksalad: Flood (flooded paddy test), 13 to 15 days; for Ducksalad plant response rating: Flood, 31 g ai/ha, scale 0 to 100 (0 no effect, 100 complete control)
Summary of the method: as §2

rice (Oryza sativa) = test: Test B flooded paddy test; conditions: for Plant response rating, Flood, Rice: 250 g ai/ha, flooded paddy test, visual rating on 0 to 100 scale (0 no effect, 100 complete control) after 13 to 15 days; for Plant response rating, Rice: Flood (flooded paddy test), 13 to 15 days; for Rice plant response rating: Flood, 31 g ai/ha, scale 0 to 100 (0 no effect, 100 complete control)
Summary of the method: as §2

[11] = tested on: umbrella sedge (Cyperus difformis); test: Test B flooded paddy test; conditions: for Plant response rating, Flood, Sedge, Umbrella: 250 g ai/ha, flooded paddy test, visual rating on 0 to 100 scale (0 no effect, 100 complete control) after 13 to 15 days; for Plant response rating, Sedge, Umbrella: Flood (flooded paddy test), 13 to 15 days; for Sedge, Umbrella plant response rating: Flood, 31 g ai/ha, scale 0 to 100 (0 no effect, 100 complete control)
Summary of the method: as §2

[12] = Postemergence, 125 g ai/ha, 0 to 100 scale where 0 is no effect and 100 is complete control
[13] = Postemergence, 500 g ai/ha, visual injury, 0 to 100 scale (0 no effect, 100 complete control), approx. ten days
[14] = Preemergence, 125 g ai/ha, 0 to 100 scale, 0 = no effect, 100 = complete control
[15] = Preemergence, 500 g ai/ha, 0 to 100 scale, 0 = no effect, 100 = complete control
[16] = Postemergence, 500 g ai/ha, approx. ten days
[17] = 31 g ai/ha, 0 to 100 scale (0 no effect, 100 complete control)
[18] = 125 g ai/ha, scale 0 to 100 (0 no effect, 100 complete control)
[19] = 250 g ai/ha, scale 0 to 100 (0 no effect, 100 complete control), 13 to 15 days
[20] = 62 g ai/ha, scale of 0 to 100 where 0 is no effect and 100 is complete control
[21] = 125 g ai/ha, scale 0 to 100, 0 is no effect, 100 is complete control
[22] = Postemergence, 500 g ai/ha, 0 to 100 scale, 0 = no effect, 100 = complete control, approx. ten days
[23] = Preemergence, 500 g ai/ha, visual injury, 0 to 100 scale (0 no effect, 100 complete control), approx. ten days

CCCn1c(-c2cccc(Cl)c2)ncc(C(=O)C2=C(O)CCCC2=O)c1=O [Compound 190]
30: Plant response rating, Flood, Barnyardgrass [9] | Plant response rating, Sedge, Umbrella [11, 21]
20: Plant response rating, Barnyardgrass [9, 21] | Plant response rating, Ducksalad [10, 20] | Ducksalad plant response rating [10]
90: Plant response rating, Barnyardgrass [1, 12] | Foxtail, Giant plant response rating [2, 13] | Plant response rating, Foxtail, Giant [2, 15] | Plant response rating, Crabgrass, Large [3, 12] | Crabgrass, Large plant response rating [3, 13] | Plant response rating, Crabgrass, Large [3, 15]
10: Plant response rating, Barnyardgrass [1, 14]
0: Plant response rating, Corn (corn (Zea mays); [12]) | Corn plant response rating (corn (Zea mays); [13]) | Plant response rating, Corn (corn (Zea mays); [14]) | Plant response rating, Corn (corn (Zea mays); [15]) | Plant response rating, Wheat [7, 12] | Wheat plant response rating [7, 16] | Plant response rating, Wheat [7, 14] | Plant response rating, Wheat [7, 15] | Plant response rating, Barley [8, 17] | Plant response rating, Barnyardgrass [9, 20] | Barnyardgrass plant response rating [9] | Plant response rating, Sedge, Umbrella [11, 20] | Sedge, Umbrella plant response rating [11]
95: Plant response rating, Flood, Sedge, Umbrella [11]
5: Barley plant response rating (0 to 100 scale) ([8]; 62 g ai/ha, 13 to 15 days)
100: Barnyardgrass plant response rating [1, 13] | Plant response rating, Barnyardgrass [1, 15] | Plant response rating, Morningglory [4, 12] | Morningglory plant response rating [4, 13] | Plant response rating, Pigweed [5, 12] | Pigweed plant response rating [5, 13] | Plant response rating, Pigweed [5, 15] | Plant response rating, Velvetleaf [6, 12] | Velvetleaf plant response rating [6, 16] | Plant response rating, Velvetleaf [6, 15] | Plant response rating, Flood, Ducksalad [10]
80: Plant response rating, Foxtail, Giant [2, 12]
70: Plant response rating, Morningglory [4, 15] | Plant response rating, Pigweed [5, 14] | Plant response rating, Velvetleaf [6, 14] | Plant response rating, Barley [8, 19]
15: Plant response rating, Flood, Rice (rice (Oryza sativa)) | Plant response rating, Rice (rice (Oryza sativa); [20]) | Plant response rating, Rice (rice (Oryza sativa); [21]) | Rice plant response rating (rice (Oryza sativa))
60: Plant response rating, Foxtail, Giant [2, 14] | Plant response rating, Crabgrass, Large [3, 14]
40: Plant response rating, Barley [8, 18] | Plant response rating, Ducksalad [10, 21]

CCn1c(-c2ccccc2)ncc(C(=O)C2=C(O)C3CCC(C3)C2=O)c1=O (stereo not shown) [Compound 239]
15: Plant response rating, Flood, Barnyardgrass [9]
50: Plant response rating, Morningglory [4, 15]
100: Plant response rating, Crabgrass, Large [3, 15] | Plant response rating, Morningglory [4, 12] | Morningglory plant response rating [4, 13] | Plant response rating, Pigweed [5, 15] | Plant response rating, Velvetleaf [6, 12] | Velvetleaf plant response rating [6, 16] | Plant response rating, Velvetleaf [6, 15]
20: Plant response rating, Barnyardgrass [1, 14] | Plant response rating, Foxtail, Giant [2, 14]
0: Plant response rating, Corn (corn (Zea mays); [14]) | Plant response rating, Corn (corn (Zea mays); [15]) | Plant response rating, Wheat [7, 12] | Wheat plant response rating [7, 16] | Plant response rating, Wheat [7, 14] | Plant response rating, Barley [8, 17] | Plant response rating, Barley ([8]; 62 g ai/ha, scale 0 to 100 (0 no effect, 100 complete control)) | Plant response rating, Barnyardgrass [9, 20] | Plant response rating, Barnyardgrass [9, 21] | Barnyardgrass plant response rating [9] | Plant response rating, Ducksalad [10, 20] | Ducksalad plant response rating [10] | Plant response rating, Flood, Rice (rice (Oryza sativa)) | Plant response rating, Rice (rice (Oryza sativa); [20]) | Plant response rating, Rice (rice (Oryza sativa); [21]) | Rice plant response rating (rice (Oryza sativa)) | Plant response rating, Sedge, Umbrella [11, 20] | Sedge, Umbrella plant response rating [11]
30: Plant response rating, Corn (corn (Zea mays); [12]) | Corn plant response rating (corn (Zea mays); [13]) | Plant response rating, Wheat [7, 15]
40: Plant response rating, Sedge, Umbrella [11, 21]
75: Plant response rating, Flood, Sedge, Umbrella [11]
80: Plant response rating, Barnyardgrass [1, 15] | Foxtail, Giant plant response rating [2, 13] | Plant response rating, Crabgrass, Large [3, 12] | Plant response rating, Pigweed [5, 12] | Plant response rating, Velvetleaf [6, 14] | Plant response rating, Flood, Ducksalad [10]
90: Plant response rating, Barnyardgrass [1, 12] | Barnyardgrass plant response rating [1, 13] | Crabgrass, Large plant response rating [3, 13] | Pigweed plant response rating [5, 13]
70: Plant response rating, Foxtail, Giant [2, 12] | Plant response rating, Foxtail, Giant [2, 15] | Plant response rating, Crabgrass, Large [3, 14] | Plant response rating, Pigweed [5, 14] | Plant response rating, Ducksalad [10, 21]
5: Plant response rating, Barley ([8]; 125 g ai/ha, scale 0 (no effect) to 100 (complete control), 13 to 15 days) | Plant response rating, Barley [8, 19]

CCCn1c(-c2cc(F)cc(F)c2)ncc(C(=O)C2=C(O)CCCC2=O)c1=O [Compound 152]
10: Plant response rating, Barley [8, 17]
20: Plant response rating, Wheat [7, 12] | Plant response rating, Wheat [7, 14] | Plant response rating, Rice (rice (Oryza sativa); [20]) | Rice plant response rating (rice (Oryza sativa))
70: Plant response rating, Wheat [7, 22]
85: Plant response rating, Barley [8, 18] | Plant response rating, Sedge, Umbrella [11, 21]
45: Barley plant response rating (0 to 100 scale) ([8]; 62 g ai/ha, 13 to 15 days)
25: Plant response rating, Barnyardgrass [9, 20]
30: Plant response rating, Corn (corn (Zea mays); [23]) | Plant response rating, Rice (rice (Oryza sativa); [21])
0: Plant response rating, Corn (corn (Zea mays); [12]) | Plant response rating, Corn (corn (Zea mays); [14]) | Ducksalad plant response rating [10] | Plant response rating, Sedge, Umbrella [11, 20] | Sedge, Umbrella plant response rating [11]
100: Plant response rating, Barnyardgrass [1, 12] | Plant response rating, Barnyardgrass [1, 22] | Plant response rating, Barnyardgrass [1, 23] | Plant response rating, Foxtail, Giant [2, 22] | Plant response rating, Crabgrass, Large [3, 22] | Plant response rating, Crabgrass, Large [3, 23] | Plant response rating, Morningglory [4, 12] | Plant response rating, Morningglory [4, 22] | Plant response rating, Pigweed [5, 12] | Plant response rating, Pigweed [5, 22] | Plant response rating, Pigweed [5, 14] | Plant response rating, Pigweed [5, 23] | Plant response rating, Velvetleaf [6, 12] | Plant response rating, Velvetleaf [6, 22] | Plant response rating, Velvetleaf [6, 15] | Plant response rating, Flood, Ducksalad [10] | Plant response rating, Ducksalad [10, 21] | Plant response rating, Flood, Sedge, Umbrella [11]
90: Plant response rating, Foxtail, Giant [2, 23] | Plant response rating, Crabgrass, Large [3, 12] | Plant response rating, Crabgrass, Large [3, 14] | Plant response rating, Barley [8, 19] | Plant response rating, Ducksalad [10, 20]
50: Plant response rating, Barnyardgrass [1, 14] | Plant response rating, Corn (corn (Zea mays); [22]) | Plant response rating, Wheat [7, 15] | Plant response rating, Barnyardgrass [9, 21]
80: Plant response rating, Foxtail, Giant [2, 12] | Plant response rating, Morningglory [4, 23]
60: Plant response rating, Foxtail, Giant [2, 14] | Plant response rating, Morningglory [4, 14] | Plant response rating, Velvetleaf [6, 14] | Plant response rating, Flood, Rice (rice (Oryza sativa))
75: Plant response rating, Flood, Barnyardgrass [9]
15: Barnyardgrass plant response rating [9]
